According to US20230148184A1, “COMPOUNDS AND METHODS FOR MODULATING SPLICING” (REMIX THERAPEUTICS INC., priority 2020, published 2023):

Experiments:
Format in all cases: cell-based
[1] = tested on: HTT mRNA; experiment: RT-qPCR splicing assay for HTT mRNA isoforms (canonical junction CJ and alternative junction AJ); settings: A673 or K562 cell line, 24 hours compound treatment; for IC50: decrease in CJ mRNA; for AC50: increase in AJ mRNA
Outline: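 A673 (DMEM, 10% FBS) or K562 (IMDM, 10% FBS) cells were treated 24 h at 37 °C with an 11-point 3-fold series, top dose 10 uM, DMSO ≤0.25%. In lysates, HTT CJ and AJ isoforms were quantified by one-step RT-qPCR and normalized to PPIA (A673) or GAPDH/GUSB (K562), at least in duplicate.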

[2] = tested on: Target C CJ mRNA; experiment: Gene panel canonical junction qPCR assay, Target C; settings: decrease in CJ mRNA levels, RT-qPCR
Outline: (§1)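 A673 or K562 cells treated 24 h at 37 °C with 11-point 3-fold dilutions (top 10 uM final, DMSO ≤0.25%); lysates analysed by one-step RT-qPCR for canonical-junction mRNA. ΔCt vs GAPDH, GUSB or PPIA housekeeper, normalised to DMSO (ΔΔCt), converted to RQ via 2^(−ΔΔCt) and percentage response.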

[3] = tested on: HTT CJ mRNA; experiment: Gene panel canonical junction qPCR assay, HTT; settings: decrease in CJ mRNA levels, RT-qPCR
Outline: as §1

[4] = tested on: SMN2 CJ mRNA; experiment: Gene panel canonical junction qPCR assay, SMN2; settings: decrease in CJ mRNA levels, RT-qPCR
Outline: as §1

Row | Compound | IC50 [1] [nM] | AC50 [1] [nM] | IC50 [2] [nM] | IC50 [3] [nM] | IC50 [4] [nM]
1 | Cc1cn(-c2ccc3c(c2)COc2nc(N(C)[C@@H]4C[C@H]5CC[C@@H](C4)N5)ccc2-3)cn1 [Compound 164] | < 100 | < 100 | 100 to 1000 | < 100 | < 100
2 | CC1(C)CC(Nc2ccc3c(n2)OCc2cc(-n4cccn4)ccc2-3)CC(C)(C)N1 [Compound 165] | 100 to 1000 | 100 to 1000 | 100 to 1000 | 100 to 1000 | < 100
3 | c1cnn(-c2ccc3c(c2)COc2nc(NC4CNC4)ccc2-3)c1 [Compound 166] | > 10000 | > 10000 | > 10000 | > 10000 | 1000 to 10000
4 | c1cnn(-c2ccc3c(c2)COc2nc(N4CC5(CCNCC5)C4)ccc2-3)c1 [Compound 167] | > 10000 | > 10000 | > 10000 | > 10000 | > 10000
5 | c1cnn(-c2ccc3c(c2)COc2nc(N4CC5(CCCNC5)C4)ccc2-3)c1 [Compound 168] | > 10000 | > 10000 | > 10000 | > 10000 | > 10000
6 | c1cnn(-c2ccc3c(c2)COc2nc(N4CCC5(CC4)CNC5)ccc2-3)c1 [Compound 169] | 100 to 1000 | 100 to 1000 | 100 to 1000 | 100 to 1000 | 100 to 1000
7 | CN1C[C@@H]2CN(c3ccc4c(n3)OCc3cc(-n5cccn5)ccc3-4)C[C@@H]2C1 [Compound 170] | 1000 to 10000 | 1000 to 10000 | > 10000 | 1000 to 10000 | 1000 to 10000
8 | CC1(C)CC(Oc2ccc3c(n2)OCc2cc(-n4cccn4)ccc2-3)CC(C)(C)N1 [Compound 171] | 1000 to 10000 | 1000 to 10000 | 1000 to 10000 | 1000 to 10000 | 100 to 1000
9 | CN(c1ccc2c(n1)OCc1cc(-n3cc(N)cn3)ccc1-2)[C@@H]1C[C@H]2CC[C@@H](C1)N2 [Compound 172] | 100 to 1000 | 100 to 1000 | 100 to 1000 | 100 to 1000 | < 100
10 | c1cnn(-c2ccc3c(c2)COc2nc(N4CCNCC4)ccc2-3)c1 [Compound 173] | > 10000 | > 10000 | > 10000 | > 10000 | 1000 to 10000
11 | c1cnn(-c2ccc3c(c2)COc2nc(NC4CCNCC4)ccc2-3)c1 [Compound 174] | > 10000 | > 10000 | > 10000 | > 10000 | 1000 to 10000
12 | CN(c1ccc2c(n1)OCc1cc(-n3cccn3)ccc1-2)C1CCNCC1 [Compound 175] | > 10000 | 1000 to 10000 | > 10000 | > 10000 | 1000 to 10000
13 | [2H]C([2H])([2H])N(c1ccc2c(n1)OCc1cc(-n3cccn3)ccc1-2)C1CCNCC1 [Compound 176] | 1000 to 10000 | 1000 to 10000 | > 10000 | 1000 to 10000 | 1000 to 10000
14 | CCN(c1ccc2c(n1)OCc1cc(-n3cccn3)ccc1-2)C1CCNCC1 [Compound 177] | > 10000 | > 10000 | > 10000 | > 10000 | > 10000
15 | CN(c1ccc2c(n1)OCc1cc(-n3cccn3)ccc1-2)[C@@H]1C[C@H]2CCC[C@@H](C1)N2 [Compound 178] | < 100 | < 100 | 100 to 1000 | < 100 | < 100
16 | c1cnn(-c2ccc3c(c2)COc2nc(N[C@@H]4C[C@H]5CC[C@@H](C4)N5)ccc2-3)c1 [Compound 179] | 100 to 1000 | 100 to 1000 | 100 to 1000 | 100 to 1000 | 100 to 1000
17 | CN(c1ccc2c(n1)OCc1cc(-n3cccn3)ccc1-2)[C@H]1C[C@]2(C)CC[C@](C)(C1)N2 [Compound 180] | < 100 | < 100 | 100 to 1000 | < 100 | < 100
18 | c1cnn(-c2ccc3c(c2)COc2nc(N4CCCC5(CNC5)C4)ccc2-3)c1 [Compound 181] | > 10000 | > 10000 | > 10000 | > 10000 | > 10000
19 | c1cnn(-c2ccc3c(c2)COc2nc(N4CCC5(CCNCC5)C4)ccc2-3)c1 [Compound 182] | > 10000 | > 10000 | > 10000 | > 10000 | > 10000

Row | Compound | IC50 [1] [nM] | AC50 [1] [nM] | IC50 [2] [nM] | IC50 [3] [nM] | IC50 [4] [nM]
20 | c1cnn(-c2ccc3c(c2)COc2nc(N4CCC5(CCCNC5)C4)ccc2-3)c1 (centres unmarked) [Compound 183] | > 10000 | > 10000 | > 10000 | > 10000 | 100 to 1000
21 | c1cnn(-c2ccc3c(c2)COc2nc(N4CCC5(CCNC5)CC4)ccc2-3)c1 [Compound 184] | 1000 to 10000 | 1000 to 10000 | 1000 to 10000 | 1000 to 10000 | 1000 to 10000
22 | c1cnn(-c2ccc3c(c2)COc2nc(N4C[C@H]5CNC[C@H]5C4)ccc2-3)c1 [Compound 185] | > 10000 | > 10000 | > 10000 | > 10000 | 1000 to 10000
23 | CC1(C)CC(Oc2ccc3c(n2)OCc2cc(-n4cccn4)ccc2-3)CCN1 (centres unmarked) [Compound 186] | 1000 to 10000 | 1000 to 10000 | > 10000 | 1000 to 10000 | 100 to 1000
24 | c1cnn(-c2ccc3c(c2)COc2nc(OC4CCNCC4)ccc2-3)c1 [Compound 187] | 1000 to 10000 | > 10000 | > 10000 | 1000 to 10000 | 1000 to 10000
25 | c1cnn(-c2ccc3c(c2)COc2nc(O[C@@H]4C[C@H]5CC[C@@H](C4)N5)ccc2-3)c1 [Compound 188] | 100 to 1000 | 100 to 1000 | 1000 to 10000 | 100 to 1000 | 100 to 1000
26 | CCN(c1ccc2c(n1)OCc1cc(-n3cccn3)ccc1-2)C1CC(C)(C)NC(C)(C)C1 [Compound 189] | > 10000 | 1000 to 10000 | > 10000 | > 10000 | 1000 to 10000
27 | c1cnn(-c2ccc3c(c2)COc2nc(N[C@@H]4C[C@H]5CCC[C@@H](C4)N5)ccc2-3)c1 [Compound 190] | < 100 | 100 to 1000 | 100 to 1000 | < 100 | < 100
28 | CCN(c1ccc2c(n1)OCc1cc(-n3cccn3)ccc1-2)[C@@H]1C[C@H]2CC[C@@H](C1)N2 [Compound 191] | 100 to 1000 | 1000 to 10000 | 1000 to 10000 | 100 to 1000 | 100 to 1000
29 | c1cnn(-c2ccc3c(c2)COc2nc(N4CCCC5(CCNC5)C4)ccc2-3)c1 (centres unmarked) [Compound 192] | > 10000 | > 10000 | > 10000 | > 10000 | > 10000
30 | c1cnn(-c2ccc3c(c2)COc2nc(S[C@@H]4C[C@H]5CC[C@@H](C4)N5)ccc2-3)c1 [Compound 193] | > 10000 | > 10000 | > 10000 | 1000 to 10000 | > 10000
31 | CN(c1ccc2c(n1)OCc1cc(-n3cccn3)ccc1-2)[C@H]1[C@@H]2CNC[C@@H]21 [Compound 194] | 1000 to 10000 | 1000 to 10000 | > 10000 | > 10000 | > 10000
32 | CN1C[C@@H]2[C@H](C1)[C@H]2N(C)c1ccc2c(n1)OCc1cc(-n3cccn3)ccc1-2 [Compound 196] | > 10000 | > 10000 | > 10000 | > 10000 | > 10000
33 | CN(C)[C@H]1[C@@H]2CN(c3ccc4c(n3)OCc3cc(-n5cccn5)ccc3-4)C[C@@H]21 [Compound 197] | 1000 to 10000 | > 10000 | > 10000 | 1000 to 10000 | > 10000
34 | [2H]C([2H])([2H])N(c1ccc2c(n1)OCc1cc(-n3cccn3)ccc1-2)C1CC(C)(C)NC(C)(C)C1 [Compound 199] | 1000 to 10000 | 1000 to 10000 | > 10000 | 1000 to 10000 | 1000 to 10000
35 | [2H]C([2H])([2H])N(c1ccc2c(n1)OCc1cc(-n3cccn3)ccc1-2)[C@@H]1C[C@H]2CCC[C@@H](C1)N2 [Compound 200] | < 100 | < 100 | 100 to 1000 | < 100 | < 100
36 | [2H]C([2H])([2H])N(c1ccc2c(n1)OCc1cc(-n3cccn3)ccc1-2)[C@@H]1C[C@H]2CC[C@@H](C1)N2 [Compound 201] | 100 to 1000 | 100 to 1000 | 100 to 1000 | 100 to 1000 | < 100
37 | c1cnn(-c2ccc3c(c2)COc2nc(N(C4CCNCC4)C4CC4)ccc2-3)c1 [Compound 202] | 1000 to 10000 | > 10000 | > 10000 | 1000 to 10000 | > 10000
